According to patent publication US20050048007A1, “Plaque reducing composition” (INOBYS LTD., priority 2000, published 2005):
≈ marks a conversion by molar mass, not a printed value.

Legend:
Assay in all cases: MIC by serial dilutions in BHI broth (NCCLS)
Assay type in all cases: cell-based
K. pneumonia = conditions: Klebsiella pneumoniae, 37.5 degrees C., 24 hr, turbidity
From the text: (§1) Efficacy of this delivery system was shown as follows: 1. Minimum Inhibitory Concentration (MIC)
(§2) High numbers of microorganisms inhabit the oral cavity. Aerobic and anerobic bacteria combine to produce plaque, the soft sticky film adhering to the surface of the teeth. These same bacteria produce sulfur compounds responsible for oral malodor. MIC studies are commonly used to evaluate the potential effectiveness of oral washes and rinses in reducing undesirable bacteria in the oral cavity.
(§3) This […] study evaluates and compares the minimum inhibitory concentration at which two antimicrobial preparations (Solutions A & B) prevent the growth of oral microorganisms recognized as typical of those responsible for plaque and oral malodor formation. Solution A represents Example 1 (above); solution B, 0.1% chlorhexidine, represents a bench mark for efficacy, in that it is commonly accepted and used by oral care professionals to reduce plaque and malodor causing microbes.
(§4) MICs were established using the method of serial dilutions in BHI broth as established by NCCLS (National Committee for Clinical Laboratory Standards). Viable isolates of select strains of oral microbes were obtained commercially and cultured for ongoing use in the study. Serial dilutions of each of the test solutions were added to test tubes containing cultures of each isolate in BHI broth. Tubes were incubated at 37.5 degrees C. for 24 hr. and evaluated for signs of microbial growth (turbidity). Blank tubes of BHI broth, with and without microbial inoculates, were concomitantly run as a control for process sterility and viability.

A. viscosus = conditions: Actinomyces viscosus, 37.5 degrees C., 24 hr, turbidity
From the text: as §1, §2, §3, §4

S. sobrinus = conditions: Streptococcus sobrinus, 37.5 degrees C., 24 hr, turbidity
From the text: as §1, §2, §3, §4

S. sanguinis = conditions: Streptococcus sanguinis, 37.5 degrees C., 24 hr, turbidity
From the text: as §1, §2, §3, §4

S. mutans = conditions: Streptococcus mutans, 37.5 degrees C., 24 hr, turbidity
From the text: as §1, §2, §3, §4

V. atypica = conditions: 37.5 degrees C., 24 hr, turbidity
From the text: as §1, §2, §3, §4

[H]/N=C(\N/C(=N/[H])NCCCCCCNC(=N)NC(=N)Nc1ccc(Cl)cc1)Nc1ccc(Cl)cc1 [0.1% CHX, chlorhexidine]
MIC (K. pneumonia): 650 µg/mL (≈ 1290 µM) | MIC (A. viscosus): 320 µg/mL (≈ 633 µM) | MIC (S. sobrinus): 80 µg/mL (≈ 158 µM) | MIC (S. sanguinis): 80 µg/mL (≈ 158 µM) | MIC (S. mutans): 320 µg/mL (≈ 633 µM) | MIC (V. atypica): 160 µg/mL (≈ 317 µM)
